Literature values in patent US9486463B2, “Chemosensory receptor ligand-based therapies” (AMBRA BIOSCIENCE LLC, priority 2010, dated 2016).
Values belong to the compound of their own block, whether it stands above or below them.

How the values were obtained:
[1] = target: T1, sweet receptor (Homo sapiens, UniProt Q7RTX0+Q8TE23); conditions: relative sweetness on a weight comparison basis to sucrose (=1.0)
T1 sequence (Q8TE23 20-839): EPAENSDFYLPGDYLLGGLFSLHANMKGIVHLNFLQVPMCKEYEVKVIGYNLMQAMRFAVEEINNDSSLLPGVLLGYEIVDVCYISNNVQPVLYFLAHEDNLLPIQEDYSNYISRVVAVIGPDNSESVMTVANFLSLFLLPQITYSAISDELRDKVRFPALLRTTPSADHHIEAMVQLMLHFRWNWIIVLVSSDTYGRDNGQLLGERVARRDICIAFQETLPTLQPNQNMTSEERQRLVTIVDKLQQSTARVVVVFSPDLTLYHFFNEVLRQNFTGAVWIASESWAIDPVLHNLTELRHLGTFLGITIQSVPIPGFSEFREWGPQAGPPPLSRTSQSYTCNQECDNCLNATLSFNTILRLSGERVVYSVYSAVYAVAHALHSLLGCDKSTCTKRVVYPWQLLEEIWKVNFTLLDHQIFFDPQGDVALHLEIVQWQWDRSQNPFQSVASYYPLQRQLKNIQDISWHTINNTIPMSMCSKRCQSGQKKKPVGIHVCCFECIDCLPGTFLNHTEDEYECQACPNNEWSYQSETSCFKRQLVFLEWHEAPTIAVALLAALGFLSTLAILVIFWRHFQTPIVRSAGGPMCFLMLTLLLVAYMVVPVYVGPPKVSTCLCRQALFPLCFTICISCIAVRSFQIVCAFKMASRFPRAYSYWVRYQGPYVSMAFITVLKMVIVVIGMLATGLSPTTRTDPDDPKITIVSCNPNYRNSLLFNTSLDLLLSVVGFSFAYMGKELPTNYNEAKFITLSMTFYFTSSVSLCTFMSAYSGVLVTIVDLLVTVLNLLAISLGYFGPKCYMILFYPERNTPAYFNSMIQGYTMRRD
T1 sequence (Q7RTX0 21-852): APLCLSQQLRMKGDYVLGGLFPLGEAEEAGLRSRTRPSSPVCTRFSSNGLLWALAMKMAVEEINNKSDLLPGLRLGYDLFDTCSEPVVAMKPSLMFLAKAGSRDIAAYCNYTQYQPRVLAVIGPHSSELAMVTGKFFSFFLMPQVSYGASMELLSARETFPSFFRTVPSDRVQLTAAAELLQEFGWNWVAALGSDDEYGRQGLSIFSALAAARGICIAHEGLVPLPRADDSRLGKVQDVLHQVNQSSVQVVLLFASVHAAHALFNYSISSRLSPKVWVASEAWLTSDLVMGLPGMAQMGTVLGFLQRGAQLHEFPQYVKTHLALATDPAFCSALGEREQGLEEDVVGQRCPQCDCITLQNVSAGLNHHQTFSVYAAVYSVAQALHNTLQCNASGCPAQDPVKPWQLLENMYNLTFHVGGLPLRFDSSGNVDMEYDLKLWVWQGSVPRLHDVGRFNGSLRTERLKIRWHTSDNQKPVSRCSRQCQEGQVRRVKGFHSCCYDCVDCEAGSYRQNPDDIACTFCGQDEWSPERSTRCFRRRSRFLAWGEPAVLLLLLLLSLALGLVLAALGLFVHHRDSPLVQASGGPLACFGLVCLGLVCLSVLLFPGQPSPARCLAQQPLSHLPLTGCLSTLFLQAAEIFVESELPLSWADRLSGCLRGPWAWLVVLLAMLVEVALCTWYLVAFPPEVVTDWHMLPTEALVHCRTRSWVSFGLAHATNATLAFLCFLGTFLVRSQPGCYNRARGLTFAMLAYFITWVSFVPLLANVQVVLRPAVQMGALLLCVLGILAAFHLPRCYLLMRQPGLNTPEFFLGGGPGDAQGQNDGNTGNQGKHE

[2] = test system: humans
[3] = test system: rats
[4] = test system: humans; remark: listed apart in the source
[5] = test system: rats; remark: listed apart in the source
[6] = test system: humans; conditions: instillation into the duodenum of humans
[7] = test system: rats; remark: listed apart in the source
[8] = test system: patients with jejunostomy

Compound: C=C(C)C1CC=C(/C=N/O)CC1 (centres unmarked) [Perillartine (10), Perillartine]
Sweetness/potency [1]: 370

Compound: C=C1C[C@@]23CC[C@H]4[C@@](C)(CCC[C@@]4(C)C(=O)O[C@@H]4O[C@H](CO)[C@@H](O)[C@H](O)[C@H]4O)[C@@H]2CC[C@]1(O[C@@H]1O[C@H](CO)[C@@H](O)[C@H](O[C@@H]2O[C@H](CO)[C@@H](O)[C@H](O)[C@H]2O)[C@H]1O[C@@H]1O[C@H](CO)[C@@H](O)[C@H](O)[C@H]1O)C3 [Rebaudioside A (4), Rebaudioside A]
Gut hormones in the circulation [2]: no alterations

Compound: N[C@@H](CCC(=O)O)C(=O)O [glutamate]
Abdominal fat [3]: reduced abdominal fat
Weight gain [3]: decreased weight gain

Compound: OCCN1C[C@H](O)[C@@H](O)[C@H](O)[C@H]1CO [miglitol]
Post-prandial GLP-1 levels [4]: increase
Increase in GLP-1, interaction with administration of a DPP-IV inhibitor [5]: synergistic

Compound: OC[C@H]1O[C@H](O[C@]2(CCl)O[C@H](CCl)[C@@H](O)[C@@H]2O)[C@H](O)[C@@H](O)[C@H]1Cl [sucralose]
Gut hormone release [6]: no effect
Gut hormone release [7]: no effect

Sweetness/potency [1]: 30
Compound: Dulcoside A [Dulcoside A (15)]

Compound: GLP-2: gut hormone administered in patients with jejunostomy (HADGSFSDEMNTILDNLAARDFINWLIQTKITD; Glucagon-like peptide 2; UniProt P01275 146-178, looked up)
Gastric emptying of solids and liquids [8]: prolong
Intestinal absorption of energy and intestinal wet weight absorption [8]: improve
